Data from BindingDB's records for PubMed 1738111 (University of Texas, 1992).

Each compound was assayed against 5-hydroxytryptamine receptor 1B (Rattus norvegicus, UniProt P28564).
5-hydroxytryptamine receptor 1B, sequence (P28564 whole entry): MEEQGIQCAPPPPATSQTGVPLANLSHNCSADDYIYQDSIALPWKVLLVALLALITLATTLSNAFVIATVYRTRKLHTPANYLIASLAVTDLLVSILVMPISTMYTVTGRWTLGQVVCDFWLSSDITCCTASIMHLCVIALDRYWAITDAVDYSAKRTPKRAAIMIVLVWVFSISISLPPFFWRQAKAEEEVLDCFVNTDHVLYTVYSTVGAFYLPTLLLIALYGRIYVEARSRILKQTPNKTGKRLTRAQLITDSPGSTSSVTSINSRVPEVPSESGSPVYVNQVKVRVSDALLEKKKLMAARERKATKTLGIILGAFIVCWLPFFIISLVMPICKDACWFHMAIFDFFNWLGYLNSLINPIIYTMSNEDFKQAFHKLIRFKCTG
For CN1C2CCC1CC(OC(=O)c1c[nH]c3ccccc13)C2 (stereo unspecified), the Ki was greater than 10000 nM.
In the case of CC[C@@H](CO)NC(=O)[C@@H]1C=C2c3cccc4c3c(cn4C)C[C@H]2N(C)C1, the Ki is reported as 386 nM.
For Clc1cccc(Cl)c1N=C1NCCN1 [2-(2,6-dichloroanilino)-2-imidazoline], the Ki was greater than 10000 nM.
In the case of c1ccc2nc(N3CCNCC3)ccc2c1 [2-Piperazin-1-yl-quinoline (Quipazine)], the Ki is reported as 249 nM.
For O=C(c1ccc(F)cc1)C1CCN(CCn2c(=O)[nH]c3ccccc3c2=O)CC1 [3-(2-{4-[(4-fluorophenyl)carbonyl]piperidin-1-yl}ethyl)-1,2,3,4-tetrahydroquinazoline-2,4-dione], the Ki was greater than 10000 nM.
For O=C(CCCN1CCC2(CC1)C(=O)NCN2c1ccccc1)c1ccc(F)cc1 [8-[4-(4-fluorophenyl)-4-oxidanylidene-butyl]-1-phenyl-1,3,8-triazaspiro[4.5]decan-4-one], the Ki was greater than 10000 nM.
CN1CCN(c2nc3cc(C(F)(F)F)ccc3n3cccc23)CC1 [CAS_109028-10-6] gave a Ki of 32 nM.
CN1C2CCC1CC(OC(=O)c1cc(Cl)cc(Cl)c1)C2 (stereo unspecified) [MDL 72222] was tested, and the Ki was greater than 10000 nM.
CN1C[C@@H](NS(=O)(=O)N(C)C)C[C@@H]2c3cccc4c3c(cn4C)C[C@H]21 [MESULERGINE] was tested, and the Ki was greater than 10000 nM.
Work on NCC(O)c1ccc(O)c(O)c1 (stereo not drawn) [Noradrenaline,(+)] yielded a Ki greater than 10000 nM.
Cc1ccc(N(CC2=NCCN2)c2cccc(O)c2)cc1 [SMR000059054] gave a Ki of 870 nM.
FC(F)(F)c1cccc(N2CCNCC2)c1 [TFMPP] showed a Ki of 84 nM.
NCCc1c[nH]c2ccc(C(N)=O)cc12 [[3H]-5-carboxamidotryptamine] showed a Ki of 4 nM.
For COc1cc2nc(N3CCN(C(=O)c4ccco4)CC3)nc(N)c2cc1OC [[3H]-Minipress], the Ki was 290 nM.
In the case of Clc1cccc(N2CCNCC2)c1 [mCPP], the Ki is reported as 96 nM.
Work on CSc1ccc2c(c1)C(N1CCN(C)CC1)Cc1ccccc1S2 (stereo unspecified) [methanesulfonic acid;1-methyl-4-(3-methylsulfanyl-5,6-dihydrobenzo[b][1]benzothiepin-5-yl)piperazine] yielded a Ki of 95 nM.
